From patent US11179391B2, “Compound with kinase inhibitory activity and preparation method and use thereof” (priority 2017, dated 2021)

Assays:
Assay type in all cases: biochemical
CDK4/CycD3 = CDK4/CycD3 (Homo sapiens, UniProt P11802); experiment: Determination of CDK activity (Caliper mobility shift, FAM-P8 peptide): CDK4; settings: CDK4/CycD3; read-out: CDK4 enzymatic inhibitory activity (IC50)
Method: (§1) In vitro, CDK (CDK4, CDK6, CDK1, CDK2, CDK7, and CDK9) kinase activity was tested by the following method.
(§2) CDK and raw materials used here: CDK4/CycD3 (Carna, Cat. No 04-105, Lot. No 10CBS-0429 C, GST-CDK4(1-303end)/GST-CycD3(1-292end)); CDK6/cycD3 (Carna, Cat. No 04-107, Lot. No 09CBS-0622K, GST-CDK6(1-326(end))); CDK1/CyclinB (Millipore, Cat. 14-450k, Lot. No 25729U, His-CDK1+GST-cyclinB); CDK2/CycA2 (Carna, Cat. No 04-103, Lot. No 06CBS-3024, GST-CDK2 (1-298(end))); CDK7/CyclinH/MAT1 (Millipore, Cat. No 14-476M, Lot. No WAB0365-A, His-CDK7+GST-MAT1+cyclinH); CDK9/cyclinTl (Millipore, Cat. No 14-685K, Lot. No. 2476163-A, His-CDK9+cyclinTl); Peptide FAM-P8 (GL Biochem, Cat. No. 112396, Lot. No. P100804-XZ112396); ATP (Sigma, Cat. No. A7699-1G, CAS No. 987-65-5); DMSO (Sigma, Cat. No. D2650, Lot. No. 474382); EDTA (Sigma, Cat. No. E5134, CAS No. 60-00-4); 96-well plate (Corning, Cat. No. 3365, Lot. No. 22008026); 384-well plate (Corning, Cat. No. 3573, Lot. No. 12608008); Staurosporine (Sigma, Cat. No. S4400-1MG, Lot. No. 046K4080).
(§3) 1. Prepared 1× Kinase Buffer and Stop Buffer for the Test
2) 1× Kinase Base Buffer (CDK4).
(§4) 1) Diluted the compound to 50 times of the maximum concentration with 100% DMSO. For example, if the desired maximum inhibitory concentration is 10 μM, then a DMSO solution of 500 μM concentration is required.
(§5) 2) Transferred the compound to a 96-well plate and serially diluted the compound from a 100% DMSO solution at a ratio of 30 μm to 60 μm for a total of 10 concentrations gradients. 3) Transferred 100 μm of 100% DMSO to two empty wells as a no compound control and a no enzyme control.
(§6) 4) Prepared intermediate plate and transferred the compound of 10 μm concentration from the original plate to the intermediate plate, and then 90 μm of 1× kinase buffer was added and mixed by shaking for 10 min.
(§7) 4) Preparing intermediate plate and transferred the compound of […] concentration from the original plate to the intermediate plate, and then 90 μm of 1× kinase buffer was added and mixed by shaking for 10 min.
(§8) 1) Transferred 5 μm of each compound from the 96-well intermediate plate to a 384-well plate. For example, A1 of the 96-well plate was transferred to A1 and A2 of the 384-well plate. A2 of the 96-well plate was transferred to A3 and A4 of the 384-well plate, and so on.
(§9) 1) Prepared a 2.5× enzyme solution: added kinase into 1× kinase base buffer.
(§10) 2) Prepared a 2.5× peptide solution: added FAM-labeled peptide and ATP into the 1× kinase base buffer.
(§11) 3) Transferred the 2.5× enzyme solution to the assay plate: Assay plate already contained 5 μm of 10% DMSO and transferred 10 μm of 2.5× enzyme solution to each well.
(§12) 4) Incubated at room temperature for 10 min.
(§13) 5) Transferred the 2.5× peptide solution to the assay plate: added 10 μm of 2.5× peptide solution to each well of the 384-well assay plate.
(§14) 6) Kinase reaction and termination: incubated at 28° C. for a specified period and added 25 μm of stop buffer to stop the reaction.
(§15) 5. Caliper Reading: Collect Data on Caliper.
(§16) 1) Copied conversion data from Caliper program and Converted conversion values to inhibition values: Inhibition rate (%)=(1−OD value of the compound-OD value of the control well)/(OD value of the control empty-OD value of the control well)*100%.
(§17) 2) Fitted the data in XLFit excel add-in version 4.3.1 to give the corresponding IC50 values.

CDK6/cycD3 = CDK6/cycD3 (Homo sapiens, UniProt Q00534); experiment: Determination of CDK activity (Caliper mobility shift, FAM-P8 peptide): CDK6; settings: CDK6/cycD3; read-out: CDK6 enzymatic inhibitory activity (IC50)
Method: as §1, §2, §3
(§18) 1) 1× Kinase Base Buffer (CDK1, 2, and 6).
as §4, §5, §6, §7, §8, §9, §10, §11, §12, §13, §14, §15, §16, §17

CDK1/CyclinB = CDK1/CyclinB (Homo sapiens, UniProt P06493); experiment: Determination of CDK activity (Caliper mobility shift, FAM-P8 peptide): CDK1; settings: CDK1/CyclinB; read-out: CDK1 enzymatic inhibitory activity (IC50)
Method: as §1, §3, §18, §4, §5
(§19) 1) Transferred 5 μm of each compound from the 96-well intermediate plate to a 384-well plate. […] A2 of the 96-well plate was transferred to A3 and A4 of the 384-well plate, and so on.
as §9, §10, §11, §12, §13, §14, §15, §16, §17

CDK2/CycA2 = CDK2/CycA2 (Homo sapiens, UniProt P24941); experiment: Determination of CDK activity (Caliper mobility shift, FAM-P8 peptide): CDK2; settings: CDK2/CycA2; read-out: CDK2 enzymatic inhibitory activity (IC50)
Method: as §1, §3, §18, §4, §5, §19, §9, §10, §11, §12, §13, §14, §15, §16, §17

CDK7/CyclinH/MAT1 = CDK7/CyclinH/MAT1 (Homo sapiens, UniProt P50613); experiment: Determination of CDK activity (Caliper mobility shift, FAM-P8 peptide): CDK7; settings: CDK7/CyclinH/MAT1; read-out: CDK7 enzymatic inhibitory activity (IC50)
Method: as §1, §2, §3
(§20) 3) 1× Kinase Base Buffer (CDK7 and 9).
as §4, §5, §6, §7, §8, §9, §10, §11, §12, §13, §14, §15, §16, §17

CDK9/cyclinTl = CDK9/cyclinTl (Homo sapiens, UniProt P50750); experiment: Determination of CDK activity (Caliper mobility shift, FAM-P8 peptide): CDK9; settings: CDK9/cyclinTl; read-out: CDK9 enzymatic inhibitory activity (IC50)
Method: as §1, §3, §20, §4, §5, §19, §9, §10, §11, §12, §13, §14, §15, §16, §17

Sequence of CDK1/CyclinB (P06493 whole entry): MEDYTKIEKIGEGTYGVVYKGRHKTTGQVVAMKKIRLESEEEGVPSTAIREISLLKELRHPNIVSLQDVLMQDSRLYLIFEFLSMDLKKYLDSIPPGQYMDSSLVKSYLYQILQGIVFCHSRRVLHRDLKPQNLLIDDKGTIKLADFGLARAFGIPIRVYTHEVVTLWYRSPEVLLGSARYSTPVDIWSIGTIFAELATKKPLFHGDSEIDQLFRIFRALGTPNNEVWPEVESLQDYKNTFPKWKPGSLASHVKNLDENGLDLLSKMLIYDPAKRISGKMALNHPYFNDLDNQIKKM
Sequence of CDK1/CyclinB (P14635 whole entry partner): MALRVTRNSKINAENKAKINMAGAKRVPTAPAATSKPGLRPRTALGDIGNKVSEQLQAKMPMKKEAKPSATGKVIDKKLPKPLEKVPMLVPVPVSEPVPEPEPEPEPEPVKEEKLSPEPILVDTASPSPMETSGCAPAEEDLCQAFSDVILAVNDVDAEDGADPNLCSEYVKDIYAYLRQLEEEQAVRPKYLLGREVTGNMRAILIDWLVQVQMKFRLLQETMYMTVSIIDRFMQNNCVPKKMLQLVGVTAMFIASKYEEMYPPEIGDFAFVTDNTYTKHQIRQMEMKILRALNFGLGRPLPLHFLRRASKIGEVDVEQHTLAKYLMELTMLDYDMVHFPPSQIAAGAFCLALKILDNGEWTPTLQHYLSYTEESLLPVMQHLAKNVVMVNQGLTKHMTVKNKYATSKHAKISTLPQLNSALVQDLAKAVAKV
Sequence of CDK9/cyclinTl (P50750 whole entry): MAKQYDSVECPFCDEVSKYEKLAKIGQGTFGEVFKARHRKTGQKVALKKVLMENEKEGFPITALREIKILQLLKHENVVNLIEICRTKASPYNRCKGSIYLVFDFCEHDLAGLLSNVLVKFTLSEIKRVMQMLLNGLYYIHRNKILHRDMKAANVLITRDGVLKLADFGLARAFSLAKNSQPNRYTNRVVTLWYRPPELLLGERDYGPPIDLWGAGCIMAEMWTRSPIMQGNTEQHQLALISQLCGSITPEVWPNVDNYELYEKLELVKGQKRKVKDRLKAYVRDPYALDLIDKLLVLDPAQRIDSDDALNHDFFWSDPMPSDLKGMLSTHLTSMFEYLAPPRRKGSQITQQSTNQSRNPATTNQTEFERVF
Sequence of CDK9/cyclinTl (O60563 whole entry partner): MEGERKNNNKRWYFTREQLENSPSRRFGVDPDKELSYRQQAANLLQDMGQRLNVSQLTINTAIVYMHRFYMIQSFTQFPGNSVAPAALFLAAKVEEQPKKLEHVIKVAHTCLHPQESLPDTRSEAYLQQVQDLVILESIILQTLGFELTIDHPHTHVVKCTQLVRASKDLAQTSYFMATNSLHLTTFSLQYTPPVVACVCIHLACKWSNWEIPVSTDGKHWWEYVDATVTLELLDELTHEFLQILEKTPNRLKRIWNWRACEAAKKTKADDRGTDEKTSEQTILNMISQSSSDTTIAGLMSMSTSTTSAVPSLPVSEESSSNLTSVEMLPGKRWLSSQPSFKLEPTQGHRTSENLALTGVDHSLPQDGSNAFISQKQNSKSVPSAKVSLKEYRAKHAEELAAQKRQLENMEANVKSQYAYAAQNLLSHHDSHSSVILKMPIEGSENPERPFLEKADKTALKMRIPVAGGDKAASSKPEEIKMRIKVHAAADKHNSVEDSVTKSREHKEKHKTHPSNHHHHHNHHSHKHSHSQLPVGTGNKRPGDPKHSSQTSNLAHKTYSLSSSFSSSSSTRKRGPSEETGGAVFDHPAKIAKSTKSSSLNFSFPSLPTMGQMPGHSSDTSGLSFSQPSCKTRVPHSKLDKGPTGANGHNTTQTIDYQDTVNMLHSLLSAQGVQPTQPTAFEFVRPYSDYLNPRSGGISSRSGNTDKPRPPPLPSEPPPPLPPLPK
Sequence of CDK6/cycD3 (Q00534 whole entry): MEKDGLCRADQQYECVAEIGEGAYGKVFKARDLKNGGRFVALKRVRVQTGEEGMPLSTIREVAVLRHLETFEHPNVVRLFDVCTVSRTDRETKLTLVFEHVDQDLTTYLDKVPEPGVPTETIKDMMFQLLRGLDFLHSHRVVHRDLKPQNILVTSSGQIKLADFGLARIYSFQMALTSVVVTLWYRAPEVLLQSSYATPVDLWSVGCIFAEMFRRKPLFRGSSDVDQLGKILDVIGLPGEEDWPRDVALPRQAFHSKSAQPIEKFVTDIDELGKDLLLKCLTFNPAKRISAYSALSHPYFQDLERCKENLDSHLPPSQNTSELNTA
Sequence of CDK6/cycD3 (P30281 whole entry partner): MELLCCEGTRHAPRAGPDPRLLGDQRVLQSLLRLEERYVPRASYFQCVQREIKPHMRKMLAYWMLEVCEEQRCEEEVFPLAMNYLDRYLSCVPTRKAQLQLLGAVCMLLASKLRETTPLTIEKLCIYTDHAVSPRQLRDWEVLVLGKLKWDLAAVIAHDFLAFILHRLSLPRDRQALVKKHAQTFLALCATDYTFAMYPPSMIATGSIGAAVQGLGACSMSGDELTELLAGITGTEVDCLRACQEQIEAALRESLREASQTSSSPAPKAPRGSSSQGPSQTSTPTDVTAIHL
Sequence of CDK7/CyclinH/MAT1 (P50613 whole entry): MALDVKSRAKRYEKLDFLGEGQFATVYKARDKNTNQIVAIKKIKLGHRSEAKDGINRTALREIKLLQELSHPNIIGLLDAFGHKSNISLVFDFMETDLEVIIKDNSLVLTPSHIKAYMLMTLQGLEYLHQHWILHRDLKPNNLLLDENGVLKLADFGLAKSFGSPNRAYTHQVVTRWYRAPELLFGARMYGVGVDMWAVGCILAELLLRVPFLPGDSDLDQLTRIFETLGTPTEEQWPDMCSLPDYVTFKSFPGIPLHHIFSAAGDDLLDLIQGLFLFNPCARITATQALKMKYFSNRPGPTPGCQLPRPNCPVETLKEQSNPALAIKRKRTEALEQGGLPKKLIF
Sequence of CDK7/CyclinH/MAT1 (P51946 whole entry partner): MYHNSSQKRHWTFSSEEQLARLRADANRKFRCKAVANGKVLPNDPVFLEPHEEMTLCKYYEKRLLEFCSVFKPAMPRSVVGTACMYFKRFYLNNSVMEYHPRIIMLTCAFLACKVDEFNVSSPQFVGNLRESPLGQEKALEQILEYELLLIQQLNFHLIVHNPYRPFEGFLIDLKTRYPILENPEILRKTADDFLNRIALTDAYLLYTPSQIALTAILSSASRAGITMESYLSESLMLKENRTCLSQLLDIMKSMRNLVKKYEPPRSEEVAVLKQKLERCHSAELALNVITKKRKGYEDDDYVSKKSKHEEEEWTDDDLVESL
Sequence of CDK7/CyclinH/MAT1 (P51948 whole entry partner): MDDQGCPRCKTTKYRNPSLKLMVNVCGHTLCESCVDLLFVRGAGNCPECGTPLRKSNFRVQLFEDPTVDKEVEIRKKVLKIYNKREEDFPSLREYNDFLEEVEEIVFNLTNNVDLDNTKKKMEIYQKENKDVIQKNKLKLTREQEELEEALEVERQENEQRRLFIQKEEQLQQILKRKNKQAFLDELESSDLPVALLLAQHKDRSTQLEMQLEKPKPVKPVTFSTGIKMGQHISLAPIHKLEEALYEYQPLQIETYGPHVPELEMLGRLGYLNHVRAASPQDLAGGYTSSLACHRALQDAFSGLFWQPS
Sequence of CDK4/CycD3 (P11802 whole entry): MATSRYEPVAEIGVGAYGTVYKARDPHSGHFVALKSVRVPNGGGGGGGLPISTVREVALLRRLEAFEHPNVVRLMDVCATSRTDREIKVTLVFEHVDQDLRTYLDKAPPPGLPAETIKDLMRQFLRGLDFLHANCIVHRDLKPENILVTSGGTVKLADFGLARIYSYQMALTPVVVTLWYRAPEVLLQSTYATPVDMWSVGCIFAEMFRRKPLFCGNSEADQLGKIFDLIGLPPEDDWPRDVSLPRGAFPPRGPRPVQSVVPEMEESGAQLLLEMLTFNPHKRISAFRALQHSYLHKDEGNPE
Sequence of CDK4/CycD3 (P30281 whole entry partner): as the sequence (P30281 whole entry partner) above

| Structure (SMILES) | IC50 (CDK4/CycD3) [nM] | IC50 (CDK6/cycD3) [nM] | IC50 (CDK1/CyclinB) [nM] | IC50 (CDK2/CycA2) [nM] | IC50 (CDK7/CyclinH/MAT1) [nM] | IC50 (CDK9/cyclinTl) [nM] |
| --- | --- | --- | --- | --- | --- | --- |
| Cc1nc2c(F)cc(-c3nc(Nc4ccc([C@@H](O)C5CCNCC5)cn4)ncc3F)cc2n1C(C)C [Example 44] | 100 to 500 | 100 to 500 | 100 to 500 | 100 to 500 | 100 to 500 | 500 to 1000 |
| C=C(c1ccc(Nc2ncc(F)c(-c3cc(F)c4nc(C)n(C(C)C)c4c3)n2)nc1)N1CCN(CC)CC1 [Example 36] | 100 to 500 | 100 to 500 | 500 to 1000 | 500 to 1000 | 1000 to 10000 | 500 to 1000 |
| COCCCN1CCC([C@@H](C)c2ccc(Nc3ncc(F)c(-c4cc(F)c5nc(C)n(C(C)C)c5c4)n3)nc2)CC1 [Example 81] | < 100 | < 100 | 100 to 500 | < 100 | 1000 to 10000 | 100 to 500 |
| Cc1nc2c(F)cc(-c3nc(Nc4ccc(C=C5CCN(C(C)C)CC5)cn4)ncc3F)cc2n1C(C)C [Example 64] | < 100 | 100 to 500 | 1000 to 10000 | 100 to 500 | 10000 to 100000 | 100 to 500 |
| CC[C@@H](c1ccc(Nc2ncc(F)c(-c3cc(F)c4nc(C)n(C(C)C)c4c3)n2)nc1)C1CCN(CC)CC1 [Example 25] | 100 to 500 | 100 to 500 | 500 to 1000 | 100 to 500 | 1000 to 10000 | 500 to 1000 |
| COCCN1CCC([C@H](C)c2ccc(Nc3ncc(F)c(-c4cc(F)c5nc(C)n(C(C)C)c5c4)n3)nc2)CC1 (single isomer, unassigned) [Example 80] | < 100 | 100 to 500 | 500 to 1000 | 100 to 500 | 1000 to 10000 | 100 to 500 |
| Cc1nc2c(F)cc(-c3nc(Nc4ccc(C(C)C5CCNCC5)cn4)ncc3F)cc2n1C(C)C (single isomer, unassigned) [Example 20, (R or S)-5-fluoro-4-(4-fluoro-1-isopropyl-2-methyl-1H-benzo[d]imidazol-6-yl)-N-(5-(1-(piperidin-4-yl)ethyl)pyridin-2-yl) pyrimidin-2-amine] | < 100 | 100 to 500 | 500 to 1000 | 100 to 500 | 1000 to 10000 | 500 to 1000 |
| CCC(c1ccc(Nc2ncc(F)c(-c3cc(F)c4nc(C)n(C(C)C)c4c3)n2)nc1)N1CCN(CC)CC1 (single isomer, unassigned) [Example 2, (R or S)—N-(5-(1-(4-ethylpiperazin-1-yl)propyl)pyridin-2-yl)-5-fluoro-4-(4-fluoro-1-isopropyl-2-methyl-1H-benzo[d]imidazol-6-yl) pyrimidin-2-amine] | < 100 | 100 to 500 | 10000 to 100000 | 1000 to 10000 | 1000 to 10000 | 1000 to 10000 |
| CCN1CCC(=C(C)c2ccc(Nc3ncc(F)c(-c4cc(F)c5nc(C)n(C(C)C)c5c4)n3)nc2)CC1 [Example 58, N-(5-(1-(1-ethylpiperidin-4-ylidene)ethyl)pyridin-2-yl)-5-fluoro-4-(4-fluoro-1-isopropyl-2-methyl-1H-benzo[d]imidazol-6-yl)pyrimidin-2-amine] | < 100 | 100 to 500 | 500 to 1000 | 100 to 500 | 1000 to 10000 | 100 to 500 |
| CC[C@H](c1ccc(Nc2ncc(F)c(-c3cc(F)c4nc(C)n(C(C)C)c4c3)n2)nc1)N1CCNCC1 [Example 5] | < 100 | 1000 to 10000 | 10000 to 100000 | 10000 to 100000 | 1000 to 10000 | 10000 to 100000 |

Continued, values first:

| IC50 (CDK4/CycD3) [nM] | IC50 (CDK6/cycD3) [nM] | IC50 (CDK1/CyclinB) [nM] | IC50 (CDK2/CycA2) [nM] | IC50 (CDK7/CyclinH/MAT1) [nM] | IC50 (CDK9/cyclinTl) [nM] | Structure (SMILES) |
| --- | --- | --- | --- | --- | --- | --- |
| < 100 | 100 to 500 | 100 to 500 | 100 to 500 | 500 to 1000 | 100 to 500 | Cc1nc2c(F)cc(-c3nc(Nc4ccc([C@H](O)C5CCNCC5)cn4)ncc3F)cc2n1C(C)C [Example 43] |
| < 100 | 100 to 500 | < 100 | < 100 | 100 to 500 | 100 to 500 | Cc1nc2c(F)cc(-c3nc(Nc4ccc([C@@H](O)C5CCN(C)CC5)cn4)ncc3F)cc2n1C(C)C [Example 50] |
| < 100 | < 100 | 100 to 500 | < 100 | 1000 to 10000 | 100 to 500 | CCN1CCC(C(C)c2ccc(Nc3ncc(F)c(-c4cc(F)c5nc(C)n(C(C)C)c5c4)n3)nc2)CC1 (racemic) [Example 16, N-(5-(1-(1-ethylpiperidin-4-yl)ethyl)pyridin-2-yl)-5-fluoro-4-(4-fluoro-1-isopropyl-2-methyl-1H-benzo[d]imidazol-6-yl)pyrimidin-2-amine] |
| < 100 | < 100 | 100 to 500 | < 100 | 1000 to 10000 | 100 to 500 | Cc1nc2c(F)cc(-c3nc(Nc4ccc(C=C5CCN(C6CC6)CC5)cn4)ncc3F)cc2n1C(C)C [Example 66] |
| < 100 | 100 to 500 | 100 to 500 | < 100 | 1000 to 10000 | 100 to 500 | CCN1CCC([C@@H](OC)c2ccc(Nc3ncc(F)c(-c4cc(F)c5nc(C)n(C(C)C)c5c4)n3)nc2)CC1 [Example 45] |
| < 100 | 100 to 500 | 500 to 1000 | 100 to 500 | 1000 to 10000 | 100 to 500 | Cc1nc2c(F)cc(-c3nc(Nc4ccc([C@@H](C)C5CCN(C6CC6)CC5)cn4)ncc3F)cc2n1C(C)C [Example 76] |
| < 100 | < 100 | 100 to 500 | 100 to 500 | 100 to 500 | 100 to 500 | Cc1nc2c(F)cc(-c3nc(Nc4ccc([C@H](O)C5CCN(C)CC5)cn4)ncc3F)cc2n1C(C)C [Example 49] |
| < 100 | 100 to 500 | 500 to 1000 | 100 to 500 | 1000 to 10000 | 100 to 500 | Cc1nc2c(F)cc(-c3nc(Nc4ccc([C@@H](C)C5CCN(CC(F)(F)F)CC5)cn4)ncc3F)cc2n1C(C)C [Example 86] |
| < 100 | < 100 | 100 to 500 | < 100 | 1000 to 10000 | 100 to 500 | CCN1CCC(C(OC(C)=O)c2ccc(Nc3ncc(F)c(-c4cc(F)c5nc(C)n(C(C)C)c5c4)n3)nc2)CC1 (single isomer, unassigned) [Example 72, (R or S)-(1-ethylpiperidin-4-yl) (6-((5-fluoro-4-(4-fluoro-1-isopropyl-2-methyl-1H-benzo[d]imidazol-6-yl)pyrimidin-2-yl)amino)pyridin-3-yl) methyl acetate] |
